Data published in patent US20240285621A1, “PYRAZOLYL-PYRIMIDINE DERIVATIVES AS KINASE INHIBITORS” (NERVIANO MEDICAL SCIENCES S.R.L., priority 2020, published 2024).
Structures can show the parent of a compound that is named as a salt.

These compounds were tested against T1, SYK (Homo sapiens, UniProt P43405) (assay: Biochemical kinase inhibition assay on SYK, KinaseGlo assay format). Conditions: Table A; KinaseGlo format, pre-activated SYK 2.5 nM, ATP 2.5 μM, substrate BioDBn*327 125 uM, 60 minutes at rt; read-out: IC50 (μM) Kglo.
T1 construct: Recombinant proteins SYK FL was produced at NMS via baculo virus infection in insect cells; His; GST; made in house; host or cells: insect cells (baculovirus)
With `CCn1nc(-c2ccnc(Nc3cc(C)cc(C)c3)n2)cc1C(=O)N[C@H]1CCCC[C@H]1N` [Example 121, N-[(1S,2R)-2-aminocyclohexyl]-3-{2-[(3,5-dimethylphenyl)amino]pyrimidin-4-yl}-1-ethyl-1H-pyrazole-5-carboxamide hydrochloride] the IC50 was 0.012 µM. Compound `Cc1cc(C)cc(Nc2nccc(-c3cc(C(=O)NCCNC(C)C)n(C)n3)n2)c1` [Example 12, 3-{2-[(3,5-dimethylphenyl)amino]pyrimidin-4-yl}-1-methyl-N-[2-(propan-2-ylamino)ethyl]-1H-pyrazole-5-carboxamide hydrochloride] has an IC50 of 0.398 µM. With `CC[C@@H](NC(=O)c1cc(-c2ccnc(Nc3cc(C)cc(C)c3)n2)nn1C)C(F)(F)F` [Example 56, 3-{2-[(3,5-dimethylphenyl)amino]pyrimidin-4-yl}-1-methyl-N-[(2R)-1,1,1-trifluorobutan-2-yl]-1H-pyrazole-5-carboxamide] the IC50 was 0.081 µM. For `Cc1cc(C)cc(Nc2nccc(-c3cc(C(=O)N[C@H]4CCCC[C@@H]4O)n(C)n3)n2)c1` [Example 118, 3-{2-[(3,5-dimethylphenyl)amino]pyrimidin-4-yl}-N-[(1S,2S)-2-hydroxycyclohexyl]-1-methyl-1H-pyrazole-5-carboxamide], the IC50 was 0.045 µM. `Cc1cc(C)cc(Nc2nccc(-c3cc(C(=O)NCC4CC4)n(C)n3)n2)c1` [Example 47, N-(cyclopropylmethyl)-3-{2-[(3,5-dimethylphenyl)amino]pyrimidin-4-yl}-1-methyl-1H-pyrazole-5-carboxamide] was tested, and the IC50 was 0.04 µM. `Cc1cc(C)cc(Nc2nccc(-c3cc(C(=O)N4CCNCC4)n(C)n3)n2)c1` [Example 36, (3-{2-[(3,5-dimethylphenyl)amino]pyrimidin-4-yl}-1-methyl-1H-pyrazol-5-yl)(piperazin-1-yl)methanone hydrochloride] was tested, and the IC50 was 0.169 µM. `COc1cc(Nc2nccc(-c3cc(C(=O)N[C@@H](C)C(=O)N(C)C)n(C)n3)n2)cc(OC)c1` [Example 71, 3-{2-[(3,5-dimethoxyphenyl)amino]pyrimidin-4-yl}-N-[(2S)-1-(dimethylamino)-1-oxopropan-2-yl]-1-methyl-1H-pyrazole-5-carboxamide] showed an IC50 of 0.452 µM. Work on `Cc1cc(C)cc(Nc2nccc(-c3cc(C(=O)NCCF)n(C)n3)n2)c1` [Example 17, 3-{2-[(3,5-dimethylphenyl)amino]pyrimidin-4-yl}-N-(2-fluoroethyl)-1-methyl-1H-pyrazole-5-carboxamide] yielded an IC50 of 0.06 µM. In the case of `COCCNC(=O)c1cc(-c2ccnc(Nc3cc(C)cc(C)c3)n2)nn1C` [Example 16, 3-{2-[(3,5-dimethylphenyl)amino]pyrimidin-4-yl}-N-(2-methoxyethyl)-1-methyl-1H-pyrazole-5-carboxamide], the IC50 was 0.272 µM. Work on `COc1cc(Nc2nccc(-c3cc(C(=O)N[C@H]4CCCC[C@H]4N)n(C)n3)n2)cc(C(F)(F)F)c1` [Example 37, N-[(1S,2R)-2-aminocyclohexyl]-3-(2-{[3-methoxy-5-(trifluoromethyl)phenyl]amino}pyrimidin-4-yl)-1-methyl-1H-pyrazole-5-carboxamide hydrochloride] yielded an IC50 of 0.009 µM. With `Cc1cc(C)cc(Nc2nccc(-c3cc(C(N)=O)n(C)n3)n2)c1` [Example 13, 3-{2-[(3,5-dimethylphenyl)amino]pyrimidin-4-yl}-1-methyl-1H-pyrazole-5-carboxamide] the IC50 was 0.226 µM. Compound `Cn1nc(-c2ccnc(Nc3cc(Cl)cc(Cl)c3)n2)cc1C(=O)N[C@H]1CCCC[C@H]1N` [Example 99, N-[(1S,2R)-2-aminocyclohexyl]-3-{2-[(3,5-dichlorophenyl)amino]pyrimidin-4-yl}-1-methyl-1H-pyrazole-5-carboxamide hydrochloride] has an IC50 of 0.011 µM. For `Cc1cccc(Nc2nccc(-c3cc(C(=O)N[C@H]4CCCC[C@@H]4N)n(C)n3)n2)c1` [Example 53, N-[(1S,2S)-2-aminocyclohexyl]-1-methyl-3-{2-[(3-methylphenyl)amino]pyrimidin-4-yl}-1H-pyrazole-5-carboxamide], the IC50 was 0.015 µM. Compound `Cc1cc(C)cc(Nc2nccc(-c3cc(C(=O)N[C@H](CN4CCC4)C(C)C)[nH]n3)n2)c1` [Example 105, N-[(2S)-1-(azetidin-1-yl)-3-methylbutan-2-yl]-3-{2-[(3,5-dimethylphenyl)amino]pyrimidin-4-yl}-1H-pyrazole-5-carboxamide] has an IC50 of 0.012 µM. With `Cc1cc(C)cc(Nc2nccc(-c3cc(C(=O)N4CC[C@H](O)C4)n(C)n3)n2)c1` [Example 90, (3-{2-[(3,5-dimethylphenyl)amino]pyrimidin-4-yl}-1-methyl-1H-pyrazol-5-yl)[(3S)-3-hydroxypyrrolidin-1-yl]methanone] the IC50 was 0.156 µM. Work on `COc1cc(Nc2nccc(-c3cc(C(=O)N[C@H]4CCCC[C@H]4N)n(C)n3)n2)cc(OC)c1` [Example 100, N-[(1S,2R)-2-aminocyclohexyl]-3-{2-[(3,5-dimethoxyphenyl)amino]pyrimidin-4-yl}-1-methyl-1H-pyrazole-5-carboxamide hydrochloride] yielded an IC50 of 0.011 µM. `CC(C)[C@@H](CN1CCCC1)NC(=O)c1cc(-c2ccnc(Nc3cc(Cl)cc(Cl)c3)n2)nn1C` [Example 117, 3-{2-[(3,5-dichlorophenyl)amino]pyrimidin-4-yl}-1-methyl-N-[(2S)-3-methyl-1-(pyrrolidin-1-yl)butan-2-yl]-1H-pyrazole-5-carboxamide] showed an IC50 of 0.007 µM. `Cc1cc(C)cc(Nc2nccc(-c3cc(C(=O)N4C[C@H]5C[C@H]4CN5)n(C)n3)n2)c1` [Example 96, (1S,4R)-2,5-diazabicyclo[2.2.1]hept-2-yl(3-{2-[(3,5-dimethylphenyl)amino]pyrimidin-4-yl}-1-methyl-1H-pyrazol-5-yl)methanone hydrochloride] gave an IC50 of 0.07 µM. Work on `CCn1nc(-c2ccnc(Nc3cc(C)cc(C)c3)n2)cc1C(=O)N[C@H]1CCCC[C@H]1O` [Example 120, 3-{2-[(3,5-dimethylphenyl)amino]pyrimidin-4-yl}-1-ethyl-N-[(1S,2R)-2-hydroxycyclohexyl]-1H-pyrazole-5-carboxamide] yielded an IC50 of 0.027 µM. `Cc1cc(C)cc(Nc2nccc(-c3cc(C(=O)N[C@@H]4CCCC[C@H]4O)n(C)n3)n2)c1` [Example 32, 5-[2-(3,5-Dimethyl-phenylamino)-pyrimidin-4-yl]-2-methyl-2H-pyrazole-3-carboxylic acid ((1R,2R)-2-hydroxy-cyclohexyl)-amide] was tested, and the IC50 was 0.074 µM. Compound `Cc1cc(C)cc(Nc2nccc(-c3cc(C(=O)N4CCC[C@H]4CO)n(C)n3)n2)c1` [Example 89, (3-{2-[(3,5-dimethylphenyl)amino]pyrimidin-4-yl}-1-methyl-1H-pyrazol-5-yl)[(2S)-2-(hydroxymethyl)pyrrolidin-1-yl]methanone] has an IC50 of 0.219 µM. In the case of `Cn1nc(-c2ccnc(Nc3ccc4c(c3)c(Cl)cn4C)n2)cc1C(=O)N[C@H]1CCCC[C@H]1N` [Example 38, N-[(1S,2R)-2-aminocyclohexyl]-3-{2-[(3-chloro-1-methyl-1H-indol-5-yl)amino]pyrimidin-4-yl}-1-methyl-1H-pyrazole-5-carboxamide hydrochloride], the IC50 was 0.005 µM.

Same assay, conditions: Table B; reference compounds of WO2012/139930, KinaseGlo format on Syk; read-out: IC50 (μM) Kglo
`CCc1cccc(CC)c1NC(=O)c1cc(-c2ccnc(Nc3ccccc3OC)n2)n(C)n1` [compound 7, reference compound] showed an IC50 greater than 10 µM. In the case of `CNC(=O)c1cc(-c2ccnc(N(C)C)n2)n(C(C)(C)C)n1` [compound 39, reference compound], the IC50 was greater than 10 µM. In the case of `CCc1cccc(CC)c1NC(=O)c1cc(-c2ccnc(Nc3ccccc3OC)n2)[nH]n1` [compound 14, reference compound], the IC50 was greater than 10 µM.
